Data on five molecules can be found in patent publication US20080227846A1, “METHODS OF TREATING JUVENILE TYPE 1 DIABETES MELLITUS” (MUSC Foundation for Research Development, priority 2007, published 2008).

Where “and” joins values, the source holds several entries; their conditions need not be identical. Equal values may be shown once.

For data set [1], the system named is NOD mice. As to the kind of experiment: Prevention of diabetes in NOD mice, daily oral atorvastatin calcium or AICAR. The class given is in vivo, mouse. The following applies: for NOD mice without diabetes compared to saline: FIG. 6, atorvastatin p<0.004, AICAR 10 mg/kg body weight per day orally p<0.001. The text has this:
The non-obese diabetic (NOD) mouse model is the best-studied animal model of autoimmune diabetes. […] Spontaneous diabetes occurs in female NOD mice and is preceded by insulitis, a lymphocytic infiltration of the pancreatic islets, which is the major histologic event occurring by 5-8 weeks in the NOD mouse (Chatenoud et al., Proc. Natl. Acad. Sci. 91:123-127, 1994).
In these experiments, 4-week old female NOD mice were obtained from Jackson Laboratories (JAX strain no 001976; NOD/LtJ strain) and maintained in a sterile environment. Drug treatment began at 4-weeks of age, prior to inflammatory disease onset. Under normal conditions, diabetes begins appearing in NOD mice by 12-weeks in untreated animals, with 90-100% of the mice developing the disease by 30-weeks.
The animals were divided into three groups of 23 animals each. Group 1 was the control and received vehicle only by oral lavage of physiological saline daily. Groups 2 and 3 received atorvastatin calcium (Lipitor®) at a dose of 5 or 10 mg/kg body weight daily, respectively. Blood glucose (BG) was measured in each animal three-times per week. […] Also, two non-diabetic animals from each group were sacrificed on days 50, 70, and 80 for histological and cytokine analyses (not included in FIG. 1).
In addition to statins, AICAR was also administered to NOD mice at 10 mg/kg body weight per day orally.

Data set [2] relates to NOD mice. As to the kind of experiment: Atorvastatin calcium and AICAR, individually and in combination, blood glucose in NOD mice. It is filed as in vivo, mouse. The following applies: FIG. 8.
The test system of data set [3] is iNOS, TNF-α, and IFN-γ mRNA. Description: Quantitative real-time PCR of pancreas, pro-inflammatory cytokines and iNOS. The class given is in vivo, mouse. The note with it: FIG. 9, vs saline-treated mice. Background: Quantitative PCR measures a nucleic acid by following its amplification.
The test system of data set [4] is macrophages (ED1) and granulocytes (GR) infiltrated into the pancreatic islets. As to the kind of experiment: Immunohistopathology staining of pancreas for infiltration of macrophages and granulocytes. The following applies: for entry of inflammatory cells into pancreatic tissue: animals of Example 1.
A further data set relates to iNOS and TNF-α protein. As to the kind of experiment: Western blot of pancreas tissue. The class given is in vivo, mouse. The note with it: vs saline-treated diabetic mice.
The test system of data set [5] is juvenile patients newly diagnosed with T1DM. As to the kind of experiment: Statin treatment of juvenile patients newly diagnosed with T1DM, C-peptide. It is filed as in vivo, human. The following applies: patient. As for the experimental part:
Two juvenile patients newly diagnosed with T1DM were treated with a statin in order to evaluate whether the diabetic condition in the juvenile patient can be stabilized or reversed by statin treatment. A human patient who was positive for insulin antibodies was identified as having new onset T1DM. […] The patient was treated with 10 mg/day for the first two weeks after diagnosis, and 20 mg/day thereafter.
A human patient who was positive for insulin antibodies was identified as having new onset T1DM. The patient began treatment with 20 mg/day atorvastatin calcium (Lipitor®) at the time (the day of) diagnosis of T1DM. […] Normally, within 12 months after diagnosis a child would have been expected to drop from 100% of the insulin the patient started with to 14.0%±7% (s.d.) of the insulin the child started with.

The conditions of data set [6]: Palomer et al., Diabetologia 48:1671-1673 (2005); cited from earlier work.
For data set [7], the system named is NOD mice. Description: Simvastatin plus insulin, blood glucose in NOD mice. The class given is in vivo, mouse. As for the experimental part: In another experiment, simvastatin was administered to NOD mice, and the animals were supplemented with insulin in an attempt to keep the animals from developing diabetic ketoacidosis. The study was designed to examine whether simvastatin at 2 mg/kg/day and 5 mg/kg/day protected islet cells from damage during early phases of diabetes. […]. The animals were divided into four groups randomly. Group 1 was the control and received oral lavage of physiological saline daily, plus insulin as set forth above. Groups 2 and 3 received simvastatin at a dose of 2 mg/kg/day or 5 mg/kg/day, respectively, along with insulin as set forth above. Group 4 received no treatment with either simvastatin or insulin. Blood glucose (BG) was measured in each animal approximately once a week, unless the glucose level of an animal began to fluctuate, at which time glucose level were measured every other day. This study lasted approximately four months. The last column of Table 1 is a list of measurements of glucose levels in all animals treated with simvastatin.

A further data set has as its system new-onset T1DM patients. The note with it: cited from earlier work.

For `NC(=O)c1ncn([C@@H]2O[C@H](CO)[C@@H](O)[C@H]2O)c1N` [AICAR, 5-aminoimidazole-4-carboxamide ribonucleoside], the “NOD mice without diabetes compared to saline” value with NOD mice [1] is given as “significantly different”. Also, the “mean BG vs control Group 1” value in the data set with NOD mice [2] (Group 4, 0.5 mg/gm body weight daily oral, p=0.025 by log-rank test) is “lower”. Also, the “mRNA expression of iNOS, TNF-α, and IFN-γ in pancreas” value in [3] is given as “elevated in saline-treated mice”. The “entry of inflammatory cells into pancreatic tissue” value in [4] is on record as “inflammatory cells are not entering pancreatic tissue”.

For the molecule `CC(C)c1c(C(=O)Nc2ccccc2)c(-c2ccccc2)c(-c2ccc(F)cc2)n1CC[C@@H](O)C[C@@H](O)CC(=O)O` [atorvastatin calcium], the “mean BGs” value in the data set on NOD mice [1] (10 mg/kg daily oral, s.e.=15, n=277, p<0.001 vs saline 219) was 182.5. The “NOD mice without diabetes compared to saline” value in the data set with NOD mice [1] is given as “effective”. In addition, in the data set on NOD mice [1] (NOD mice, 5 or 10 mg/kg daily), the “protection from development of auto-immune diabetes” value is recorded as “partially protects”. In addition, the “number of surviving disease-free animals vs control group” value in the data set on NOD mice [1] (after 104 days of treatment, 5 or 10 mg/kg daily, FIG. 1) is recorded as “greater”. The “number of animals that developed diabetes” value in the data set on NOD mice [1] (during treatment, FIG. 1) is reported as “reduction in the number of animals that developed diabetes”. Also, the “mean BG vs control Group 1” value with NOD mice [2] (Group 2, 5 mg/kg body weight daily oral, day 59-109 after weaning) was “lower”; in the data set with NOD mice [2] (Group 3, 10 mg/kg body weight daily oral, day 59-109 after weaning) it was “lower”. Besides, the “expression of iNOS and TNF-α protein in pancreas” value in the data set with iNOS and TNF-α protein was “increased expression of iNOS and TNF-α protein in saline-treated diabetic mice compared with atorvastatin calcium-treated mice”. Besides, the “mRNA expression of iNOS, TNF-α, and IFN-γ in pancreas” value in data set [3] is given as “elevated in saline-treated mice”. In data set [5] (10 mg/day two weeks then 20 mg/day, six months, FIG. 14), the C-peptide result was “marked increase in C-peptide”. Further, in data set [5] (20 mg/day, after 50 days of treatment), the “rise of C-peptide levels” value is listed as 39.25%. The molecule also gave a C-peptide level in data set [5] (20 mg/day, after 50 days of treatment, initial 35.8 units) of 49.85 units. Further, the “increase of insulin over the original amount of C-peptide” value in data set [5] (20 mg/day, over a period of 24 months, FIG. 15) is listed as 240%. Moreover, the “net increase of the amount of insulin vs expected” value in data set [5] (expected […]±7% of starting insulin within 12 months) was 600%. Besides, the “effect on preventing diabetes” value in data set [6] was “no effect on preventing diabetes”. Besides, in data set [4], the “entry of inflammatory cells into pancreatic tissue” value is “inflammatory cells are not entering pancreatic tissue”. Also, the “immunostaining for ED1 and GR1 marker proteins in pancreas” value in data set [4] (vs intense staining in saline-treated mice) is listed as “No immunostaining was observed”.

Regarding `CCC(C)(C)C(=O)O[C@H]1C[C@@H](C)C=C2C=C[C@H](C)[C@H](CC[C@@H]3C[C@@H](O)CC(=O)O3)[C@H]21` [simvastatin], the “average blood glucose level” value in the data set with NOD mice [7] (Group 2, simvastatin 2 mg/kg/day plus insulin, 36 determinations, p=0.05 vs saline plus insulin) is 143.6 ± 26.5 mg/dL; with NOD mice [7] (Group 2, simvastatin 2 mg/kg/day plus insulin, 36 determinations, p=0.05 vs saline plus insulin, listed as Simv.), 143.6 mg/dL; with NOD mice [7] (Group 3, simvastatin 5 mg/kg/day plus insulin, 28 determinations, p<0.02 vs saline plus insulin) it was 134.5 ± 15.7 mg/dL; in the data set on NOD mice [7] (Group 3, simvastatin 5 mg/kg/day plus insulin, 28 determinations, p<0.02 vs saline plus insulin, listed as Simv.), 134.5 mg/dL; in the data set on NOD mice [7] (Simvastatin Combined, 64 determinations) it was 139.7 mg/dL and 139.6563 mg/dL.

As for “TRX4: anti-CD3 monoclonal antibody with orphan drug status”, the “adverse effect associated with therapy” value in the data set with new-onset T1DM patients (six-day intravenous infusion) is recorded as “moderate “flu-like” syndrome”.

Take “hOKT3y1(ala-ala): modified, nonmitogenic, humanized form of the anti-CD3 monoclonal antibody”: in the data set with new-onset T1DM patients (one year after initial 14-day course, 25% in the control group, Herold et al. 2002), the “patients who maintained the same or improved endogenous insulin secretion” value is recorded as 75%.
